# Laboratory results published in patent publication US20060110710A1, “Endodontic ozone therapy” (priority 2001, published 2006).
# Columns and labels:
# [1] = tested on: microorganisms associated with bad breath; experiment: Effect of ozone in the treatment of bad breath; format: in vivo; conditions: mouth exposed to ozone
# Excerpt: Bad breath is caused, in part, by the retention and subsequent degradation of dead cellular material, by microorganisms, sloughed off continuously by a normal, healthy mouth.
# [2] = tested on: Lactobacillus acidophilus; experiment: Ozone exposure of bacteria cultures (root canals); format: cell-based; conditions: exposed to ozone
# [3] = 1H NMR evaluation of the oxidative consumption of salivary biomolecules by ozone; conditions: O3 for 30 seconds; unstimulated human saliva 0.60 ml; 1H NMR 600 MHz
# Excerpt: Ozone is one of nature's most powerful oxidants which accounts for its ability to kill bacteria, spores and viruses. Uniquely, ozone decomposes to a harmless, non-toxic and environmentally safe material (oxygen). In this investigation, a multicomponent evaluation of the oxidative consumption of salivary biomolecules by ozone (O3) has been performed using high resolution proton (^1H) nuclear magnetic resonance (NMR) spectroscopy. The ozone-generating equipment employed in this study was designed by Purezone Ltd. (Ipswich, U.K.). Unstimulated human saliva samples were collected from 8 patients and each of them was divided into two equivalent portions (0.60 ml). The first of these was treated with O3 generated from the above device for a period of 30 seconds; the second group of portions served as controls. Samples were subjected to ^1H NMR analysis at an operating frequency of 600 MHz. […] High field ^1H NMR spectroscopy provides much useful analytical data regarding the fate of O3 in human saliva, information which is of much relevance to its potential therapeutic actions in vivo.
# [4] = tested on: Streptococcus sobrinus; TH 21; experiment: Ozone on S. sobrinus on saliva coated glass beads; format: cell-based; conditions: 10 seconds of ozone on saliva coated glass beads
# Excerpt: The aims of these studies were to evaluate the efficiency of ozone on primary root caries and associated micro-organisms (Streptococcus sobrinus; TH 21 Streptococcus mutans; NCTC 10449). In study 1, 40 soft primary root carious lesions (PRCLs) from freshly extracted teeth were used and randomly divided into two groups to test the exposure to ozone for either 10 or 20 seconds. There was a significant (p<0.001) difference (Mean±SE) between the control samples for either 10 seconds (log10 5.91±0.15) or 20 seconds (log10 6.18±0.21) and ozone treated samples for either 10 seconds (log10 3.57±0.37) or 20 seconds (log10 3.77±0.42). In study 2, 40 sterile saliva coated glass beads were put into bijoux bottles with 3 mls of Todd Hewitt broth for control and test groups. S. sobrinus and S. mutans were inoculated and incubated anaerobically overnight. Each glass bead was washed with 2 mls of PBS. Immediately, 10 seconds of ozone was applied to the glass beads in the test groups. Subsequently, each glass bead in the test and control groups was placed in 3 mls of Todd Hewitt broth with six more sterile glass beads and were vortexed for 30 seconds. After decimal dilutions, […] were spread on blood agar plates supplemented with 5% (V/V) horse blood and placed in an anaerobic chamber at 37° C. for two days. The number of each colony type was counted and calculated. […]
# Lactobacillus salivarius = experiment: Ozone exposure of bacteria cultures (root canals); format: cell-based; conditions: exposed to ozone
# [5] = Ozone exposure of bacteria cultures (root canals); format: cell-based, Streptococcus aurous; conditions: exposed to ozone
# [6] = tested on: Inflamed human gingivitis; experiment: Effect of ozone on gum disease; format: in vivo; conditions: after exposure to ozone
# Excerpt: Inflamed human gingivitis is exposed to ozone using the techniques herein described.
# [7] = tested on: Microflora from Primary Root Caries; experiment: Ozone effect on microflora from primary root caries ex-vivo; format: cell-based; conditions: for Mean ± SE of Total cfu (Log10): after 10 seconds of ozone treatment
# Excerpt: Primary root carious lesions (PRCL) are a major clinical problem. […] An ozone producing generator (Purezone Ltd., Ipswich, U.K.) was used in this ex-vivo study assessing the use of ozone on PRCL. In this study, soft PRCL requiring restoration were used as these are the most severe type of lesion found in humans. 20 freshly extracted teeth with PRCL requiring restoration were used. After plaque removal using a hand held standard fine nylon fiber sterile toothbrush with sterile water as a lubricant to cleanse the surface, each tooth was then isolated using sterile cotton wool rolls and dried using a dry sterile cotton wool roll. […] Each sample was weighed and immediately placed in 1 ml of Fastidious Anaerobe Broth (FAB). […] They were vortexed for 30 seconds to facilitate the extraction of any micro-organisms from the carious dentine and disperse any aggregates. After decimal dilution with FAB, […] of these was spread on Fastidious Anaerobe Agar (LabM, Bury, […].) supplemented with 5% (v/V) horse blood in an anaerobic chamber at 37° C. for four days. The mean±SE number of each colony type was counted and calculated. The procedure of Example 2 was repeated except that ozonized water was applied to the lesion for 20 seconds. […] The aims of these studies were to evaluate the efficiency of ozone on primary root caries and associated micro-organisms (Streptococcus sobrinus; TH 21 Streptococcus mutans; NCTC 10449). […] In study 2, 40 sterile saliva coated glass beads were put into bijoux bottles with 3 mls of Todd Hewitt broth for control and test groups. S. sobrinus and S. mutans were inoculated and incubated anaerobically overnight. Each glass bead was washed with 2 mls of PBS. […] Subsequently, each glass bead in the test and control groups was placed in 3 mls of Todd Hewitt broth with six more sterile glass beads and were vortexed for 30 seconds. After decimal dilutions, […] were spread on blood agar plates supplemented with 5% (V/V) horse blood and placed in an anaerobic chamber at 37° C. for two days. The number of each colony type was counted and calculated. […] This treatment regime is therefore an effective, quick, conservative and simple method to kill micro-organisms in primary root carious lesions.
# Month ulcerations = experiment: Effect of ozone in the treatment of mouth ulcerations; format: in vivo; conditions: exposed to ozone
compound,measurement,setting,value
O=[O+][O-] [ozone],enzyme levels in the month,[1],alleviated and/or reduced
same,microorganisms associated with bad breath,[1],eliminated or reduced
same,growth of the bacteria cultures,[2],eliminated or inhibited
same,effect of O3 treatment on salivary 3-D-hydroxybutyrate,[3],evidence for the O3-mediated oxidation of salivary 3-D-hydroxybutyrate
same,effect of O3 treatment on salivary methionine,[3],oxidation of the volatile sulphur compound precursor methionine to its corresponding sulphoxide
same,effect of O3 treatment on salivary polyunsaturated fatty acids,[3],oxidative consumption of salivary polyunsaturated fatty acids
same,effect of O3 treatment on salivary pyruvate,[3],oxidative decarboxylation of the salivary electron-donor pyruvate
same,"colony count, log10, Mean±SE",[4],1.09±0.36 log10
same,growth of the bacteria cultures,Lactobacillus salivarius,eliminated or inhibited
same,growth of the bacteria cultures,[5],eliminated or inhibited
same,enzyme levels in extracts from inflamed human gingiva,[6],alleviated and/or reduced
same,percentage of micro-organisms killed,[7]; 10 seconds of ozone treatment,more than 99%
same,Mean ± SE of Total cfu (Log10),[7]; soft PRCL of freshly extracted teeth,3.57±0.37 Log10
same,Mean ± SE of Total cfu (Log10),"[7]; soft PRCL of freshly extracted teeth, listed as Ozone",3.57 ± 0.37 Log10
same,"Total cfu, log10, mean±SE","[7]; after 20 seconds of ozone treatment, soft PRCL of freshly extracted teeth",3.77±0.42 log10
same,enzyme levels in the month ulcerations,Month ulcerations,alleviated and/or reduced
same,microorganisms in the ulceration,Month ulcerations,eliminated or reduced
